Experimental data reported in patent EP3057950B1, “PHENYL LINKED QUINOLINYL MODULATORS OF ROR-GAMMA-T” (Janssen Pharmaceutica NV, priority 2013, dated 2015).

Key:
[1] = target: T1, wild type human RORγt LBD (Homo sapiens, UniProt P51449); test: RORγt Reporter Assay (GAL4-RORγt LBD luciferase in HEK293T cells); assay type: cell-based; conditions: HEK293T cells; for IC50: compounds for 24 hours, read-out: RORγt reporter Assay, IC50; for inhibition at 6 µM: HEK-293T, read-out: RORγt reporter Assay, % inhibition @ 6 µM, @ 6 µM
T1 construct: expressed in transfected cells; host or cells: HEK293T
T1 sequence (P51449 269-508 limits assumed): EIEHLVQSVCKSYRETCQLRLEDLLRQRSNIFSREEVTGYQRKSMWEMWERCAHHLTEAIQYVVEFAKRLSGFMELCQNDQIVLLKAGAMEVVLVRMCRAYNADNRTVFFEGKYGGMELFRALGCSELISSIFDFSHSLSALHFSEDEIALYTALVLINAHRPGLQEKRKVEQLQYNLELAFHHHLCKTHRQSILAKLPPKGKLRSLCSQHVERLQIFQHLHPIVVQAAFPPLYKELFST
How it was run: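 HEK293T cells transiently co-transfected with GAL4-DBD–human RORγt LBD (or AF2 mutant) and GAL4-responsive firefly luciferase reporter; renilla luciferase normalised transfection and viability. Compounds applied 24 h in 5% lipid-reduced FCS; firefly/renilla ratio plotted against concentration.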

[2] = target: T2, wild type human RORγt ligand binding domain (RORγt LBD) (Homo sapiens, UniProt P51449); test: RORγt ThermoFluor® Assay (thermal shift, binding affinity); conditions: pH 7.0, estimated from concentration response curves
T2 construct: His-tag (N); TurboTEV protease cleavage site (ENLYFQG) (N); made in house; host or cells: E. coli (pHIS1, modified pET expression vector)
T2 sequence (P51449 269-508 limits assumed): T1 sequence (P51449 269-508 limits assumed)
How it was run: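 Thermal shift assay on 0.065 mg/mL RORγt LBD with 60 µM 1,8-ANS in 100 mM Hepes pH 7.0, 10 mM NaCl, 2.5 mM GSH, 0.002% Tween-20. Heated at 1 °C/min, fluorescence read at 500 nm.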

[3] = test system: IL-17 production by CD4 T cells; test: Human Th17 Assay (IL-17 production by CD4 T cells under Th17 differentiation conditions); assay type: cell-based; conditions: 3 days, IL-17 in supernatant
Experimental: The human Th17 assay tests the effect of RORγt modulatory compounds on IL-17 production by CD4 T cells under conditions which favor Th17 differentiation. Total CD4^+ T cells were isolated from the peripheral blood mononuclear cells (PBMC) of healthy donors using a CD4^+ T cell isolation kit II, following the manufacturer's instructions (Miltenyi Biotec). […] 50 µL of compound at titrated concentrations in DMSO were added into each well at final DMSO concentration at 0.2%. Cells were incubated for 1 hour, then 50 µL of Th17 cell differentiation medium was added to each well. The final concentrations of antibodies and cytokines (R&D Systems) in differentiation medium were: 3x10^6/mL anti-CD3/CD28 beads (prepared using human T cell activation/expansion kit, Miltenyi Biotec), 10 µg/mL anti-IL4, 10 µg/mL anti-IFNγ, 10 ng/mL […], 10 ng/mL IL23, 50 ng/mL IL6, 3 ng/mL TGFβ and 20 U/mL IL2. Cells were cultured at 37 °C and 5% CO2 for 3 days. Supernatants were collected and the accumulated IL-17 in culture was measured by using MULTI-SPOT® Cytokine Plate following manufacture's instruction (Meso Scale Discovery). The plate was read using Sector Imager 6000, and IL-17 concentration was extrapolated from the standard curve. The IC50s were determined by GraphPad.

Which “RORγt reporter Assay, % inhibition @ 6 µM” value [1] does the source give for `COc1nc2ccc(C(O)(c3cncn3C)C3CCN(C(C)=O)CC3)cc2c(Cl)c1-c1cccc(C(F)(F)F)c1` (single isomer, unassigned) [Example 1c, 1-(4-((4-Chloro-2-methoxy-3-(3-(trifluoromethyl)phenyl)quinolin-6-yl)(hydroxy)(1-methyl-1H-imidazol-5-yl)methyl)piperidin-1-yl)ethanone] here?
The value was 95%.

What about the IC50 [1] of the same compound?
Its IC50 is 110 nM.

And the Kd [2]?
The Kd was 33 nM.

What about the IC50 [3] of the same compound?
Its IC50 is 310 nM.

What does the source list for `COc1nc2ccc(C(O)(c3cncn3C)C3CCN(C(C)=O)CC3)cc2c(C#N)c1-c1cccc(C(F)(F)F)c1` (single isomer, unassigned) [Example 2b, 6-((1-Acetylpiperidin-4-yl)(hydroxy)(1-methyl-1H-imidazol-5-yl)methyl)-2-methoxy-3-(3-(trifluoromethyl)phenyl)quinoline-4-carbonitrile]?
IC50 [1]: 200 nM; inhibition at 6 µM [1]: 91%; Kd [2]: 130 nM; IC50 [3]: 2900 nM

How did the “RORγt reporter Assay, % inhibition @ 6 µM” value [1] turn out when `COc1nc2ccc(C(O)(c3cncn3C)C3CCN(C(C)=O)CC3)cc2c(C#N)c1-c1cccc(C(F)(F)F)c1` (single isomer, unassigned) [Example 2c, 6-((1-Acetylpiperidin-4-yl)(hydroxy)(1-methyl-1H-imidazol-5-yl)methyl)-2-methoxy-3-(3-(trifluoromethyl)phenyl)quinoline-4-carbonitrile] was run?
The value was 95%.

What about the IC50 [1] of the same compound?
Its IC50 is 170 nM.

And the Kd [2]?
The Kd was 140 nM.

And the IC50 [3]?
Its IC50 is 670 nM.

For `COc1nc2ccc(C(O)(c3cncn3C)c3cnnn3C)cc2c(Cl)c1-c1cccc(C(F)(F)F)c1` (single isomer, unassigned) [Example 3b, (4-Chloro-2-methoxy-3-(3-(trifluoromethyl)phenyl)quinolin-6-yl)(1-methyl-1H-1,2,3-triazol-5-yl)(1-methyl-1H-imidazol-5-yl)methanol], which IC50 [1] is on record?
The IC50 was 3 nM.

And the inhibition at 6 µM [1]?
Its inhibition at 6 µM is 96%.

And the Kd [2]?
Its Kd is 0.56 nM.

What about the IC50 [3] of the same compound?
Its IC50 is 13 nM.

Which results are given for `COc1nc2ccc(C(O)(c3cncn3C)c3cnnn3C)cc2c(Cl)c1-c1cccc(C(F)(F)F)c1` (single isomer, unassigned) [Example 3c, (4-Chloro-2-methoxy-3-(3-(trifluoromethyl)phenyl)quinolin-6-yl)(1-methyl-1H-1,2,3-triazol-5-yl)(1-methyl-1H-imidazol-5-yl)methanol]?
RORγt reporter Assay, % inhibition @ 6 µM [1]: 98%; IC50 [1]: 6.6 nM; Kd [2]: 2.3 nM; IC50 [3]: 43 nM

For `COc1nc2ccc(C(O)(c3cncn3C)c3cnnn3C)cc2c(C#N)c1-c1cccc(C(F)(F)F)c1` (single isomer, unassigned) [Example 4b, 6-(Hydroxy(1-methyl-1H-1,2,3-triazol-5-yl)(1-methyl-1H-imidazol-5-yl)methyl)-2-methoxy-3-(3-(trifluoromethyl)phenyl)quinoline-4-carbonitrile], which IC50 [1] is on record?
The IC50 was 9.5 nM.

What about the inhibition at 6 µM [1] of the same compound?
The inhibition at 6 µM was 98%.

What about the Kd [2] of the same compound?
The Kd was 4.4 nM.

And the IC50 ([3]; Homo sapiens, CD4+ T, 72 h)?
The IC50 was 61 nM.

What does the source list for `COc1nc2ccc(C(O)(c3cncn3C)c3cnnn3C)cc2c(C#N)c1-c1cccc(C(F)(F)F)c1` (single isomer, unassigned) [Example 4c, 6-(Hydroxy(1-methyl-1H-1,2,3-triazol-5-yl)(1-methyl-1H-imidazol-5-yl)methyl)-2-methoxy-3-(3-(trifluoromethyl)phenyl)quinoline-4-carbonitrile]?
RORγt reporter Assay, % inhibition @ 6 µM [1]: 98%; IC50 [1]: 11 nM; Kd [2]: 1.4 nM; IC50 [3]: 31 nM

`COc1nc2ccc(C(O)(c3ccc(C(F)(F)F)nc3)c3cncn3C)cc2c(Cl)c1-c1ccc(Cl)s1` (single isomer, unassigned) [Example 14b, [4-Chloro-3-(5-chlorothiophen-2-yl)-2-methoxyquinolin-6-yl](1-methyl-1H-imidazol-5-yl)[6-(trifluoromethyl)pyridin-3-yl]methanol] was tested. Which “RORγt reporter Assay, % inhibition @ 6 µM” value [1] did it give?
The value was 53%.

What about the IC50 [1] of the same compound?
The IC50 was 240 nM.

And the Kd [2]?
The Kd was 5.2 nM.

What about the IC50 [3] of the same compound?
The IC50 was 79 nM.

Which results are given for `COc1nc2ccc(C(O)(c3ccc(C(F)(F)F)nc3)c3cncn3C)cc2c(Cl)c1-c1ccc(Cl)s1` (single isomer, unassigned) [Example 14c, [4-Chloro-3-(5-chlorothiophen-2-yl)-2-methoxyquinolin-6-yl](1-methyl-1H-imidazol-5-yl)[6-(trifluoromethyl)pyridin-3-yl]methanol]?
RORγt reporter Assay, % inhibition @ 6 µM [1]: 87%; IC50 [1]: 510 nM; Kd [2]: 140 nM; IC50 [3]: 310 nM

Which “RORγt reporter Assay, % inhibition @ 6 µM” value [1] does the source give for `COc1nc2c(C)cc(C(O)(c3ccc(C(F)(F)F)nc3)c3cncn3C)cc2c(C#N)c1-c1ccc(OC(F)(F)F)cc1` (single isomer, unassigned) [Example 19b, 6-(Hydroxy(1-methyl-1H-imidazol-5-yl)(6-(trifluoromethyl)pyridin-3-yl)methyl)-2-methoxy-8-methyl-3-(4-(trifluoromethoxy)phenyl)quinoline-4-carbonitrile] here?
Its value is 94%.

And the IC50 [1]?
Its IC50 is 300 nM.

What about the Kd [2] of the same compound?
The Kd was 360 nM.

What about the IC50 ([3]; Homo sapiens, CD4+ T, 72 h) of the same compound?
The IC50 was 400 nM.

`CC(=O)N1CCC(C(O)(c2ccccc2)c2cc(C)c3nc(C#N)c(-c4ccccc4)c(C#N)c3c2)CC1` (single isomer, unassigned) [Example 21c, 6-((1-Acetylpiperidin-4-yl)(hydroxy)(phenyl)methyl)-8-methyl-3-phenylquinoline-2,4-dicarbonitrile] was tested. Which “RORγt reporter Assay, % inhibition @ 6 µM” value [1] did it give?
The value was 96%.

What about the IC50 [1] of the same compound?
Its IC50 is 190 nM.

And the Kd [2]?
Its Kd is 110 nM.

What about the IC50 ([3]; Homo sapiens, CD4+ T, 72 h) of the same compound?
Its IC50 is 180 nM.

What does the source list for `Cc1cc(C(O)(c2ccc(Cl)cc2)c2cncn2C)cc2c(C#N)c(-c3ccccc3)c(C#N)nc12` (single isomer, unassigned) [Example 23c, 6-((4-Chlorophenyl)(hydroxy)(1-methyl-1H-imidazol-5-yl)methyl)-8-methyl-3-phenylquinoline-2,4-dicarbonitrile]?
RORγt reporter Assay, % inhibition @ 6 µM [1]: 100%; IC50 [1]: 230 nM; Kd [2]: 150 nM; IC50 ([3]; Homo sapiens, CD4+ T, 72 h): 400 nM

Which results are given for `Cc1cc(C(O)(c2ccc(C(F)(F)F)nc2)c2cncn2C)cc2c(C#N)c(-c3ccccc3)c(C#N)nc12` (single isomer, unassigned) [Example 25c, 6-(Hydroxy(1-methyl-1H-imidazol-5-yl)(6-(trifluoromethyl)pyridin-3-yl)methyl)-8-methyl-3-phenylquinoline-2,4-dicarbonitrile]?
RORγt reporter Assay, % inhibition @ 6 µM [1]: 95%; IC50 [1]: 160 nM; Kd [2]: 61 nM; IC50 ([3]; Homo sapiens, CD4+ T, 72 h): 160 nM

How did the “RORγt reporter Assay, % inhibition @ 6 µM” value [1] turn out when `COc1c(-c2ccccc2)c(C(F)(F)F)nc2ccc(C(O)(c3ccc(Cl)cc3)c3cncn3C)cc12` (single isomer, unassigned) [Example 33c, (4-Chlorophenyl)(4-methoxy-3-phenyl-2-(trifluoromethyl)quinolin-6-yl)(1-methyl-1H-imidazol-5-yl)methanol] was run?
Its value is 99%.

What about the IC50 [1] of the same compound?
The IC50 was 130 nM.

What about the Kd [2] of the same compound?
The Kd was 77 nM.

And the IC50 ([3]; Homo sapiens, CD4+ T, 72 h)?
The IC50 was 290 nM.

Which results are given for `CC(=O)N1CCC(C(O)(c2ccc3nc(C(F)(F)F)c(-c4ccccc4)c(Cl)c3c2)c2cncn2C)CC1` (single isomer, unassigned) [Example 34c, 1-(4-((4-Chloro-3-phenyl-2-(trifluoromethyl)quinolin-6-yl)(hydroxy)(1-methyl-1H-imidazol-5-yl)methyl)piperidin-1-yl)ethanone]?
RORγt reporter Assay, % inhibition @ 6 µM [1]: 96%; IC50 [1]: 270 nM; Kd [2]: 100 nM; IC50 ([3]; Homo sapiens, CD4+ T, 72 h): 260 nM

For `COc1nc2ccc(C(O)(c3cnnn3C)c3cnc(C)n3C)cc2c(Cl)c1-c1ccccc1` (single isomer, unassigned) [Example 41b, (4-Chloro-2-methoxy-3-phenylquinolin-6-yl)(1,2-dimethyl-1H-imidazol-5-yl)(1-methyl-1H-1,2,3-triazol-5-yl)methanol], which IC50 [1] is on record?
Its IC50 is 8.6 nM.

What about the inhibition at 6 µM [1] of the same compound?
Its inhibition at 6 µM is 102%.

What about the Kd [2] of the same compound?
The Kd was 1.4 nM.

What about the IC50 [3] of the same compound?
Its IC50 is 7 nM.

For `COc1nc2ccc(C(O)(c3cnnn3C)c3cnc(C)n3C)cc2c(Cl)c1-c1ccccc1` (single isomer, unassigned) [Example 41c, (4-Chloro-2-methoxy-3-phenylquinolin-6-yl)(1,2-dimethyl-1H-imidazol-5-yl)(1-methyl-1H-1,2,3-triazol-5-yl)methanol], which “RORγt reporter Assay, % inhibition @ 6 µM” value [1] is on record?
Its value is 102%.

And the IC50 [1]?
The IC50 was 270 nM.

And the Kd [2]?
Its Kd is 6.5 nM.

And the IC50 [3]?
Its IC50 is 210 nM.
